In patent US20030104490A1, “Assay” (priority 2000, published 2003):

Tests used:
[1] = system: CHO-T cells expressing an IRAP-GFP construct; assay: Insulin-induced translocation of IRAP-GFP (GLUT4 vesicles) to the plasma membrane, immunofluorescence, surface:total IRAP-GFP ratio; format: cell-based; settings: unpermeabilised, anti-GFP staining vs GFP fluorescence, 200 nM insulin for 30 min, inhibitor (wortmannin) treatment preceding stimulation, 20 fields of view
Description: The IRAP-GFP construct used in this example was constructed using an IRAP fragment 66-533 (from the start site to the end of the extracellular ‘stalk’ region) which was generated by PCR using specific primers from a partial cDNA IRAP clone available to the inventors. The resulting fragment was cloned into the pcDNA3 vector using the flanking restriction enzyme sites. GFP3 with a C-terminal myc-tag was also generated by PCR using specific primers and the product cloned into pcDNA3 downstream of the IRAP insert.
CHO-T cells were transfected or microinjected with the IRAP-GFP construct and 24 h later were stimulated without or with 200 nM insulin for 30 min. This was preceded by treatment with an inhibitor (e.g. wortmannin) of insulin signalling.
Subsequently cells were fixed and stained with anti-GFP antibodies (Roche) without prior permeabilisation, as described below, in order to visualise GFP exposed on the surface of the plasma membrane only. […]
The total IRAP-GFP expression level is given by the level of GFP fluorescence (and this corresponds to the second detection method of the first aspect of the invention). […]
Fluorescence intensity due to IRAP-GFP fluorescence and surface IRAP-GFP immunostaining was then computed from cells imaged in 20 fields of view for each treatment condition. Results are expressed as an average ratio of surface:total IRAP-GFP.

[2] = system: 3T3-L1 adipocytes microinjected with the IRAP-GFP construct; assay: Insulin-induced translocation of GLUT4-containing vesicles (IRAP-GFP) to the plasma membrane in 3T3-L1 adipocytes, confocal microscopy; format: cell-based; settings: serum-starved 2 hours, 100 nM insulin for 30 minutes
Method: 3T3-L1 fibroblasts (between passages 4 and 12) were seeded onto 22 mm glass coverslips and allowed to grow to confluence. Differentiation into adipocytes was induced in DMEM containing 10% (v/v) myoclone-plus FCS, 0.25 μM dexamethasone, 0.5 mM isobutylmethylxanthine and 166 nM insulin for 2 days (day 0 to day 2). This medium was replaced with DMEM containing 10% (v/v) myoclone-plus FCS and 166 nM insulin for a further 2 days (day 2 to day 4). From day 4 onwards cells were maintained in DMEM containing 10% (v/v) myoclone-plus FCS, replacing the medium every two days. 3T3-L1 adipocytes were used between day 7 and day 10 after initiation of differentiation.
Differentiated 3T3-L1 adipocytes were microinjected with the IRAP-GFP construct used in Example 1 (pcDNA3). […]
The total level of the IRAP-GFP expression is indicated by the level of GFP fluorescence detected (this corresponds to the second detection method of the first aspect of the invention). […] The fluorescence intensity due to IRAP-GFP fluorescence and surface IRAP-GFP immunostaining was computed for each individual cell, using Leica Confocal Software, and a background fluorescence figure subtracted. For each cell, the ratio of background corrected surface:total IRAP-GFP was calculated. […] Each data point represents the red:green fluorescence ratio for one cell.

| Compound | MEAN R/G (average ratio of surface:total IRAP-GFP) [1] | translocation of IRAP-GFP to the plasma membrane (red:green ratio surface:total IRAP-GFP per cell, FIG. 4) [2] |
| --- | --- | --- |
| COC[C@H]1OC(=O)c2coc3c2[C@@]1(C)C1=C(C3=O)[C@@H]2CCC(=O)[C@@]2(C)C[C@H]1OC(C)=O [Wortmannin, wortmannin, reference compound] | 0.363 | – |
| insulin | 1.252 | a significant proportion of cell undergo translocation |
